Experimental findings from US20080293087A1, “SULFONYLUREA RECEPTOR SHORT FORMS FROM MITOCHONDRIA AND USES THEREOF” (priority 2006, published 2008) are described below.

In assay [1] the test system is KIR6.2/NMT 55-SUR2B. The assay is described as follows: Inside-out patch-clamp potassium current, ATP sensitivity. The assay is classed as cell-based, mouse. Particulars: 100 μM ATP, COS1 cells containing KIR6.2/NMT 55-SUR2B, 0 mV, room temperature (FIG. 4C). On the procedure: (§1) Cellular Electrophysiology: Electrophysiology experiments were carried out as previously described by Chutkow el al., with modifications. Chutkow W, et al., “Alternative splicing of sur2 Exon 17 regulates nucleotide sensitivity of the ATP-sensitive potassium channel,” J. Biol. Chem. 274:13656-13665 (1999). Briefly, KIR^6.2 was sub-cloned to 5′ of a bicistronic vector (pIRGFP, as pNQ56.) to express the desired NMT-SUR2 short forms and GFP under control of a cytomegalovirus promoter. The KIR6.2 construct was transiently expressed in COS1 cell lines that stably expressed NMT 55-SUR2A or NMT 55-SUR2B. Cells expressing GFP were used for cellular electrophysiological analysis.
(§2) Potassium currents were measured at room temperature (˜22-25° C.) by an inside-out patch-clamp technique. The bath solution (cytoplasmic side) comprised the following: 140 mM KCl, 2 mM cthylene glycol-bis(β-aminioethyl ether)-N,N,N′,N′-tetraacetic acid (EGTA), 5.5 mM glucose and 5 mM N-2-hydroxyethylpiperazine-N′-2-ethanesulfonic acid (HEPES) with pH 7.3. The pH was adjusted to the designated values using KOH or HCl. 100 μM K2ATP (Sigma) was used to test the ATP sensitivity, and the ATP-containing solutions were freshly prepared. […] Signals were recorded continuously at 0 mV using a patch-clamp amplifier (Axopatch 200; Molecular Devices; Toronto, Canada) and Clampex 10.0 software (Molecular Devices).
For orientation: The patch-clamp technique gives a direct electrical read-out from membranes.

For assay [2], the system named is KIR6.2/NMT 55-SUR2A. The assay is described as above. The format is cell-based, mouse. To be noted: 100 μM ATP, COS1 cells containing KIR6.2/NMT 55-SUR2A, 0 mV, room temperature (FIG. 3C). On the procedure:
as §1, §2

For assay [3], the target named is KIR6.2 (mouse) (UniProt Q61743). The assay is described as follows: cell-based or functional assay.
Sequence of UniProt Q61743 (Q61743 whole entry): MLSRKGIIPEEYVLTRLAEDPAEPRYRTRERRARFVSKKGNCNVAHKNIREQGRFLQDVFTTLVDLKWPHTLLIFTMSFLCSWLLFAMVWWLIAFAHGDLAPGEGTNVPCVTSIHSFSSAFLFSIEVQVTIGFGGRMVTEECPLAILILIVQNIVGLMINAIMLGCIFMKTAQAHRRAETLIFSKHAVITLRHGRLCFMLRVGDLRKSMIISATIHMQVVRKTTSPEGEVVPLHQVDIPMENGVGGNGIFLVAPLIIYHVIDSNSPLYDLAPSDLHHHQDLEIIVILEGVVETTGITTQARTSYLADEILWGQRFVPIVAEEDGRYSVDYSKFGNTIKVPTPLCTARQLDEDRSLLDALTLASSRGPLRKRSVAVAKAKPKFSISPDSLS

On to `Nc1ncnc2c1ncn2[C@@H]1O[C@H](COP(=O)([O-])OP(=O)(O)OP(=O)([O-])O)[C@@H](O)[C@H]1O.[K+].[K+]` [ATP], for which the IKATP-like current entry in assay [1] and in assay [2] was “inhibited” in each case. On to “SUR2B short form (~55 kDa) (from UniProt P70170 1-1504)”, for which, in assay [3], the growth of E. coli K+ uptake mutant 6106 in M9 minimal medium pH 5.5 was 12%.
